{
  "source": "the NIST ThermoML archive (doi:10.1016/j.fluid.2005.09.006)",
  "conditions": "Liquid",
  "note": "± gives the expanded uncertainty stated by the source.",
  "data": [
    {"smiles": "O=C=O", "note": "[carbon dioxide]", "values": [
      {"measurement": "vapor or sublimation pressure", "setting": "253.15 K", "value": "1964.8 ± 49", "unit": "kPa"},
      {"measurement": "vapor or sublimation pressure", "setting": "263.15 K", "value": "2641.8 ± 66", "unit": "kPa"},
      {"measurement": "vapor or sublimation pressure", "setting": "273.15 K", "value": "3478.5 ± 86", "unit": "kPa"},
      {"measurement": "vapor or sublimation pressure", "setting": "283.15 K", "value": "4497.8 ± 110", "unit": "kPa"},
      {"measurement": "vapor or sublimation pressure", "setting": "293.15 K", "value": "5723.7 ± 140", "unit": "kPa"},
      {"measurement": "vapor or sublimation pressure", "setting": "303.15 K", "value": "7206.2 ± 180", "unit": "kPa"}
    ]},
    {"smiles": "CCC", "note": "[propane]", "values": [
      {"measurement": "vapor or sublimation pressure", "setting": "253.15 K", "value": "244.2 ± 6.2", "unit": "kPa"},
      {"measurement": "vapor or sublimation pressure", "setting": "263.15 K", "value": "344.7 ± 8.7", "unit": "kPa"},
      {"measurement": "vapor or sublimation pressure", "setting": "273.15 K", "value": "473.9 ± 12", "unit": "kPa"},
      {"measurement": "vapor or sublimation pressure", "setting": "283.15 K", "value": "636.3 ± 16", "unit": "kPa"},
      {"measurement": "vapor or sublimation pressure", "setting": "293.15 K", "value": "836.3 ± 21", "unit": "kPa"},
      {"measurement": "vapor or sublimation pressure", "setting": "303.15 K", "value": "1079.6 ± 27", "unit": "kPa"},
      {"measurement": "vapor or sublimation pressure", "setting": "313.15 K", "value": "1369.8 ± 34", "unit": "kPa"},
      {"measurement": "vapor or sublimation pressure", "setting": "323.15 K", "value": "1714.5 ± 43", "unit": "kPa"}
    ]}
  ]
}
